Results as given in PubChem BioAssay (NCI).
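Growth conditions: 96-well plates. Treatment: test compound, 48 hours, 5 concentrations. Analysis: linear interpolation between bracketing concentrations; unreached endpoints set to highest concentration. GI50 is the concentration that inhibits growth by half. TGI marks complete inhibition of growth.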

How the values were obtained:
Experiment in all cases: inhibition of tumour cell growth, NCI panel, 48 h
[1] = tested on: 786-0 renal
[2] = tested on: ACHN renal
[3] = tested on: HCC-2998 colon
[4] = tested on: HOP-92 NSCLC
[5] = tested on: NCI/ADR-RES ovarian
[6] = tested on: PC-3 prostate
[7] = tested on: SF-268 CNS
[8] = tested on: SF-539 CNS
[9] = tested on: U251 CNS
[10] = tested on: T-47D breast

Compound | TGI [1] | TGI [2] | TGI [3] | TGI [4] | TGI [5] | TGI [6] | TGI [7] | TGI [8] | TGI [9] | GI50 [1] | GI50 [2] | GI50 [3] | GI50 [4] | GI50 [6] | GI50 [7] | GI50 [8] | GI50 [10] | TGI [10] | GI50 [9] | GI50 [5]
O=C1/C(=C/c2ccc(Cl)c(Cl)c2)CNC/C1=C\c1ccc(Cl)c(Cl)c1 | 5.53 µM | 35.6 µM | 21.7 µM | 50.7 µM | 14.1 µM | 47.7 µM | 16.4 µM | 15.9 µM | 11.9 µM | – | – | – | – | – | – | – | – | – | – | –
CN(C)CCNC(=O)c1c2ccccc2cc2ccccc12 | > 100 µM | > 100 µM | > 100 µM | > 100 µM | – | – | > 100 µM | > 100 µM | > 100 µM | – | – | – | – | – | – | – | – | – | – | –
Nc1c(C(=O)NC23CC4CC(CC(C4)C2)C3)[n+]([O-])c2ccccc2[n+]1[O-] | > 100 µM | > 100 µM | > 100 µM | > 100 µM | – | – | > 100 µM | > 100 µM | > 100 µM | – | – | – | – | – | – | – | – | – | – | –
O=c1ccn(C2(CO)C=C(CO)C(O)C2O)c(=O)[nH]1 (configuration not stated) | > 25.7 µM | > 25.7 µM | > 25.7 µM | – | – | – | > 25.7 µM | > 25.7 µM | > 25.7 µM | – | – | – | – | – | – | – | – | – | – | –
COc1ccc(/C=C\c2cc(OC)c(OC)c(OC)c2)cc1OCC(=O)Nc1nc2ccccc2s1 | > 100 µM | > 100 µM | > 100 µM | > 31.1 µM | – | > 100 µM | > 100 µM | > 100 µM | > 32.9 µM | 6.23 µM | 0.107 µM | 0.447 µM | 0.204 µM | 0.183 µM | 0.23 µM | 0.187 µM | 1.59 µM | > 69.6 µM | 0.0416 µM | –
COc1cc(OC)c(F)c(COc2cnc(Nc3cnn(CCO)c3)nc2)c1F | > 100 µM | – | > 100 µM | 5.4 µM | > 100 µM | > 100 µM | > 64.9 µM | 2.17 µM | > 30.8 µM | 1.75 µM | – | 2.51 µM | 0.767 µM | 1.68 µM | 1.03 µM | 0.275 µM | 1.68 µM | > 100 µM | 0.528 µM | 0.726 µM
CCCCCCCCNC(C)C(O)c1ccc(SC(C)C)cc1 (configuration not stated) | 3.34 µM | 3.3 µM | 3.02 µM | 2.53 µM | 3.17 µM | 3.02 µM | 3.14 µM | 3.4 µM | – | 1.73 µM | 1.87 µM | 1.58 µM | 1.17 µM | 1.58 µM | 1.67 µM | 1.9 µM | 1.32 µM | 2.85 µM | – | 1.57 µM
CN1C(=O)CCC1c1ccc2c(c1)oc(=O)n2C (configuration not stated) | > 100 µM | > 100 µM | > 100 µM | – | – | – | > 100 µM | > 100 µM | > 100 µM | – | – | – | – | – | – | – | – | – | – | –
Oc1ccc2ccccc2c1N=Nc1ccc(Cl)cc1 | > 100 µM | > 100 µM | – | > 100 µM | > 100 µM | > 100 µM | > 100 µM | – | > 100 µM | – | – | – | – | – | – | – | – | > 100 µM | – | –
O=C1c2cccc3c(Cl)ccc(c23)C(=O)N1CCCN1CCN(CCCN2C(=O)c3cccc4c(Cl)ccc(c34)C2=O)CC1 | > 100 µM | > 100 µM | > 100 µM | > 100 µM | – | – | – | > 100 µM | > 100 µM | – | – | – | – | – | – | – | – | – | – | –
O=S1c2ccccc2NC(c2ccc3ccccc3c2)CC1c1ccccc1 (configuration not stated) | 31.1 µM | 52.2 µM | 36 µM | – | – | – | > 100 µM | 41.1 µM | – | – | – | – | – | – | – | – | – | – | – | –
CCCC(C)c1c(Cl)nc(Cl)nc1Cl (configuration not stated) | 12.7 µM | 15.5 µM | 29.9 µM | – | > 100 µM | 46 µM | > 100 µM | 19 µM | 21.2 µM | – | – | – | – | – | – | – | – | 29 µM | – | –
COc1ccc(OC(C)C(=O)O)c2c1CCCC2=O (configuration not stated) | > 100 µM | > 100 µM | > 100 µM | – | – | – | > 100 µM | > 100 µM | > 100 µM | – | – | – | – | – | – | – | – | – | – | –
COc1ccc(-c2nc(-c3ccccn3)c(-c3ccccn3)n2CC(C)C)cc1OC1CCCC1 | > 165 µM | > 165 µM | – | – | > 165 µM | 83.8 µM | > 165 µM | 99.7 µM | 86.9 µM | 48.7 µM | 6.92 µM | – | – | 11.1 µM | 43.8 µM | 33.8 µM | 9.73 µM | > 165 µM | 20.6 µM | 6.96 µM
OCC(O)COc1c(Cl)cc(Cl)cc1Cl (configuration not stated) | > 76.5 µM | > 100 µM | > 100 µM | > 100 µM | – | – | > 100 µM | > 100 µM | > 100 µM | – | – | – | – | – | – | – | – | – | – | –
Cc1cccc(C(C)C)c1NC(=O)CCl | > 100 µM | > 100 µM | > 100 µM | > 100 µM | – | – | > 100 µM | > 100 µM | > 100 µM | – | – | – | – | – | – | – | – | – | – | –
C=C1CCC2C(C)(CO)C(O)CCC2(C)C1C/C=C1/CCOC1=O (configuration not stated) | > 100 µM | > 100 µM | > 100 µM | > 100 µM | – | – | – | > 100 µM | > 100 µM | – | – | – | – | – | – | – | – | – | – | –
CC(C)CN1CC(C)C(=O)NC1=O (configuration not stated) | > 100 µM | > 100 µM | – | > 100 µM | – | – | > 100 µM | > 100 µM | > 100 µM | – | – | – | – | – | – | – | – | – | – | –
COc1cc2cnc(-c3ccccc3)cc2cc1OC | > 100 µM | 73.4 µM | – | 65.9 µM | 73.6 µM | 77.5 µM | > 100 µM | > 100 µM | 56.5 µM | – | – | – | – | – | – | – | – | > 100 µM | – | –
CCC(C)c1cccc(C)c1NC(=O)C(=O)Cc1nc2ccccc2s1 (configuration not stated) | > 100 µM | > 100 µM | > 100 µM | > 100 µM | – | – | > 100 µM | > 100 µM | > 100 µM | – | – | – | – | – | – | – | – | – | – | –
Cc1ccc(/C=C/C(=O)c2ccc([N+](=O)[O-])cc2)cc1 | > 100 µM | > 100 µM | > 100 µM | – | – | – | > 100 µM | > 100 µM | > 100 µM | – | – | – | – | – | – | – | – | – | – | –
CN(C)C(=S)/N=c1\ss/c(=N\C(=S)N(C)C)n1Cc1ccco1 | > 100 µM | > 100 µM | > 100 µM | – | – | – | > 100 µM | > 100 µM | > 100 µM | – | – | – | – | – | – | – | – | – | – | –
O=C1CCNC(=O)NC1 | > 100 µM | > 100 µM | – | > 100 µM | – | – | > 100 µM | – | > 100 µM | – | – | – | – | – | – | – | – | – | – | –
NC(CCc1ncc(-c2ccccc2)s1)C(=O)O (configuration not stated) | > 100 µM | > 100 µM | > 100 µM | > 100 µM | – | – | – | > 100 µM | > 100 µM | – | – | – | – | – | – | – | – | – | – | –
O=C(CCN1CCCC1)Nc1ccc2c(NCCc3ccccc3)c3ccccc3nc2c1 | 2.2 µM | 2.02 µM | 1.98 µM | 1.51 µM | > 62.9 µM | 1.55 µM | 1.91 µM | 1.55 µM | 1.55 µM | 0.819 µM | 0.51 µM | 0.51 µM | 0.332 µM | 0.406 µM | 0.481 µM | 0.435 µM | – | – | 0.329 µM | 12 µM
